Tests used:
[1] = system: rats; test: contextual fear conditioning in rats (freezing); format: in vivo, rat; details: I.V. in DMSO, furosemide 100 mg/kg, bumetanide 50 mg/kg; compared with vehicle alone; FIG. 5
Protocol: Contextual fear conditioning involves pairing an aversive event, in this case moderate foot shock, with a distinctive environment. The strength of the fear memory is assessed using freezing, a species-typical defensive reaction in rats, marked by complete immobility, except for breathing. […] However, if they are allowed to explore the distinctive environment sometime before the immediate shock, they show intense anxiety and fear when placed back into the same environment. We can take advantage of this fact and, by procedurally dividing contextual fear conditioning into two phases, we can separately study effects of treatments on memory for the context (specifically a hippocampus based process) from learning the association between context and shock or experiencing the aversiveness of the shock (which depend upon emotional response circuitry including amygdala). […] The experiment employed 24 rats. […] Each rat was again placed into the same environment for 8 min during which time freezing was measured, as an index of Pavlovian conditioned fear. […] Measurement of freezing was accomplished through an overhead video camera connected to the microcomputer and was automatically scored using a specialty piece of software, FreezeFrame (OER Inc., Reston, Va.). Total freezing time was analyzed in a one-way analysis of variance (ANOVA) test, with drug dose as the […] factor.

[2] = system: synchronized discharges; details: Hochman et al. Science 270:99-102, 1995; cited from earlier work
[3] = system: urethane-anesthetized rats; test: kainic acid-evoked electrical status epilepticus in urethane-anesthetized rats (Example 70); format: in vivo, rat
Protocol: Body temperature was monitored using a rectal temperature probe and maintained at 35-37° C. with a heating pad; heart rate (EKG) was continuously monitored. The jugular vein was cannulated on one side for intravenous drug administration. Rats were placed in a Kopf stereotaxic device (with the top of the skull level), and a bipolar stainless-steel microelectrode insulated to 0.5 mm of the tip was inserted to a depth of 0.5-1.2 mm from the cortical surface to record electroencephalographic (EEG) activity in the fronto-parietal cortex. In some experiments, a 2M NaCl-containing pipette was lowered to a depth of 2.5-3.0 mm to record hippocampal EEG. Data were stored on VHS videotape and analyzed off-line.
Following the surgical preparation and electrode placement, animals were allowed to recover for 30 minutes before the experiments were initiated with an injection of kainic acid (10-12 mg/kg i.v.). […] Experiments were terminated with the intravenous administration of urethane. Animal care was in accordance with NIH guidelines and approved by the University of Washington Animal Care Committee.

[4] = system: human skin; details: Willis et al.; cited from earlier work
[5] = system: hippocampal slices, areas CA1 and CA3
Protocol: Hippocampal slices were prepared from Sprague-Dawley adult rats as described previously. Transverse hippocampal slices 100 μm thick were cut with a vibrating cutter. Slices typically contained the entire hippocampus and subiculum. After cutting, slices were stored in an oxygenated holding chamber at room temperature for at least one hour before recording.
Sharp-electrodes for intracellular recordings from CA1 and CA3 pyramidal cells were filled with 4 M potassium acetate. Field recordings from the CA1 and CA3 cell body layers were acquired with low-resistance glass electrodes filled with 2 M NaCl. For stimulation of the Schaffer collateral or hilar pathways, a small monopolar tungsten electrode was placed on the surface of the slice. Spontaneous and stimulation-evoked activities from field and intracellular recordings were digitized (Neurocorder, Neurodata Instruments, New York, N.Y.) and stored on videotape. AxoScope software (Axon Instruments) on a personal computer was used for off-line analysis of data.
In some experiments, normal or low-chloride medium was used containing bicuculline.
After placement in the interface chamber, slices were superfused at approximately 1 ml/min. At this flow-rate, it took 8-10 minutes for changes in the perfusion media to be completed. All of the times reported here have taken this delay into account and have an error of approximately ±2 minutes.
Single electrical stimuli were delivered to the Schaffer collaterals, midway between areas CA1 and CA3, every 30 seconds so that the field responses in areas CA1 and CA3 could be monitored throughout the duration of each experiment.

[6] = system: rat hippocampal slices; test: stimulation evoked after discharge activity in rat hippocampal slices (Example 68); format: cell-based
Protocol: Sprague-Dawley rats (males and females; 25-35 days old) were decapitated, the top of the skull was rapidly removed, and the brain chilled with ice-cold oxygenated slicing medium. […] A hemisphere of brain containing hippocampus was blocked and glued (cyanoacrylic adhesive) to the stage of a Vibroslicer (Frederick Haer, Brunsick, Me.). […] In the recording chamber, the slices were perfused with oxygenated recording medium at 34-35° C. All animal procedures were conducted in accordance with NIH and University of Washington animal care guidelines. In most slice experiments, simultaneous extracellular field electrode recordings were obtained from CA1 and CA3 areas. A bipolar tungsten stimulating electrode was placed on the Schaffer collaterals to evoke synaptically-driven field responses in CA1. Stimuli consisted of 100-300 μsec duration pulses at an intensity of four times the population-spike threshold. After discharges were evoked by a 2 second train of such stimuli delivered at 60 Hz.

[7] = system: rats; details: Granados-Soto et al. Pain 2005; cited from earlier work
[8] = co-treatment with an NMDA receptor antagonist, non-NMDA receptor and Ca2+ channel antagonists together with furosemide; Collins et al. 1998; cited from earlier work
[9] = 2.5 mM furosemide, after 20 minutes of perfusion

## NS(=O)(=O)c1cc(C(=O)O)c(NCc2ccco2)cc1Cl [furosemide]
[1]
  freezing: significantly less freezing
[2]
  synchronized discharges and hyperexcited synaptic responses: reversibly blocked synchronized discharges without reducing hyperexcited synaptic responses
[3]; 90 minutes after the furosemide injection
  cortical activity: remained near normal baseline levels
[3]; intravenous furosemide, cumulative dose 40-60 mg/kg
  latency of block of seizure activity: 30 to 45 min
[3]; intravenous furosemide, cumulative dose 40-60 mg/kg, kainic acid 10-12 mg/kg i.v.
  seizure activity (EEG): blocked
[4]
  sensory nerve activation, itch and flare responses induced by histamine: inhibit sensory nerve activation to reduce the itch and flare responses
[5]; 2.5 mM furosemide
  order of cessation of spontaneous bursting in CA1 and CA3: ceased in area CA1 before the bursting ceased in area CA3
[5]; 2.5 mM furosemide or low-chloride medium
  time CA3 continued to discharge after CA1 became silent: 5 to 10 min
[5]; throughout all stages of the experiments
  field responses to stimulation of the Schaffer collaterals: evoked hyperexcited field responses in both the CA1 and CA3 cell body layers
[6]; [9]
  CA1 field response to single test pulse: hyper-excitable field response
  stimulation-evoked optical changes: blocked
[6]; 2.5 mM furosemide, after 20 minutes of perfusion, Schaffer collateral stimulation 60 Hz 2 s, CA1
  electrical after discharge activity: blocked
[6]; after 45 minutes of perfusion with normal bathing medium
  recovery after washout: restoration of initial response patterns
[6]; dose-dependency experiments
  minimum concentration required to block both the after discharges and optical changes: 1.25 mM
[7]
  formalin-induced nociception: reduced
[8]
  reduction of alcohol-dependent cerebrocortical damage: 75-85%

Source: patent US8008283B2, “Methods and compositions for the treatment of neuropsychiatric disorders” (Neurotherapeutics Pharma, Inc., priority 2005, dated 2011)
